Test results published in PubChem BioAssay AID1259407 (Chemical Carcinogenesis Research Information System (CCRIS), 2018).
The source made the active and inactive calls. How the calls were made is not given here.

Test system: CCRIS mutagenicity, Ames/micronucleus/aberration tests
Assay: CCRIS mutagenicity studies
[1] = Test System: AMES SALMONELLA TYPHIMURIUM, Strain/Indicator: TA98, Metabolic Activation: NONE, Method: STANDARD PLATE
[2] = Test System: AMES SALMONELLA TYPHIMURIUM, Strain/Indicator: TA98, Metabolic Activation: RAT, LIVER, S-9, AROCLOR 1254, Method: PREINCUBATION
[3] = Test System: AMES SALMONELLA TYPHIMURIUM, Strain/Indicator: TA100, Metabolic Activation: NONE, Method: PREINCUBATION
[4] = Test System: AMES SALMONELLA TYPHIMURIUM, Strain/Indicator: TA100, Metabolic Activation: NONE, Method: STANDARD PLATE
[5] = Test System: AMES SALMONELLA TYPHIMURIUM, Strain/Indicator: TA100, Metabolic Activation: RAT, LIVER, S-9, AROCLOR 1254, Method: PREINCUBATION
[6] = Test System: AMES SALMONELLA TYPHIMURIUM, Strain/Indicator: TA1535, Metabolic Activation: NONE, Method: PREINCUBATION
[7] = Test System: AMES SALMONELLA TYPHIMURIUM, Strain/Indicator: TA1535, Metabolic Activation: RAT, LIVER, S-9, AROCLOR 1254, Method: PREINCUBATION
[8] = Test System: AMES SALMONELLA TYPHIMURIUM, Strain/Indicator: TA1537, Metabolic Activation: NONE, Method: STANDARD PLATE

In the case of `O=C1C=CC(=O)C=C1`, the mutagenic call (Test System: AMES SALMONELLA TYPHIMURIUM, Strain/Indicator: TA97, Metabolic Activation: NONE, Method: STANDARD PLATE) is reported as “inactive; negative”, the mutagenic call (Test System: AMES SALMONELLA TYPHIMURIUM, Strain/Indicator: TA97, Metabolic Activation: RAT, LIVER, S-9, AROCLOR 1254, Method: PREINCUBATION) is reported as “inactive; negative” and the mutagenic call (Test System: AMES SALMONELLA TYPHIMURIUM, Strain/Indicator: TA97, Metabolic Activation: RAT, LIVER, S-9, PCB, Method: STANDARD PLATE) is reported as “inactive; negative”. The mutagenic call (Test System: AMES SALMONELLA TYPHIMURIUM, Strain/Indicator: TA97, Metabolic Activation: RAT, LIVER, S-9, PHENOBARBITAL, Method: PREINCUBATION) was “inactive; negative”, the mutagenic call [1] was “inactive; negative” and the mutagenic call [2] was “inactive; negative”. The mutagenic call (Test System: AMES SALMONELLA TYPHIMURIUM, Strain/Indicator: TA98, Metabolic Activation: RAT, LIVER, S-9, PCB, Method: STANDARD PLATE) was “inactive; negative”, the mutagenic call (Test System: AMES SALMONELLA TYPHIMURIUM, Strain/Indicator: TA98, Metabolic Activation: RAT, LIVER, S-9, PHENOBARBITAL AND 5,6-BENZOFLAVONE, Method: PREINCUBATION) was “inactive; negative” and the mutagenic call (Test System: AMES SALMONELLA TYPHIMURIUM, Strain/Indicator: TA98, Metabolic Activation: RAT, LIVER, S-9, PHENOBARBITAL, Method: PREINCUBATION) was “active; positive”. The mutagenic call (Test System: AMES SALMONELLA TYPHIMURIUM, Strain/Indicator: TA100, Metabolic Activation: NONE, Method: FLUCTUATION TEST) was “inactive; negative”, the mutagenic call [3] was “inactive; negative” and the mutagenic call [4] was “inactive; negative”. The mutagenic call [5] was “inactive; negative”, the mutagenic call (Test System: AMES SALMONELLA TYPHIMURIUM, Strain/Indicator: TA100, Metabolic Activation: RAT, LIVER, S-9, PCB, Method: FLUCTUATION TEST) was “active; positive” and the mutagenic call (Test System: AMES SALMONELLA TYPHIMURIUM, Strain/Indicator: TA100, Metabolic Activation: RAT, LIVER, S-9, PCB, Method: STANDARD PLATE) was “inactive; negative”. For the same compound, the mutagenic call (Test System: AMES SALMONELLA TYPHIMURIUM, Strain/Indicator: TA100, Metabolic Activation: RAT, LIVER, S-9, PHENOBARBITAL, Method: PREINCUBATION) was “active; positive”, the mutagenic call (Test System: AMES SALMONELLA TYPHIMURIUM, Strain/Indicator: TA102, Metabolic Activation: NONE, Method: PREINCUBATION) was “inactive; negative” and the mutagenic call (Test System: AMES SALMONELLA TYPHIMURIUM, Strain/Indicator: TA102, Metabolic Activation: RAT, LIVER, S-9, AROCLOR 1254, Method: PREINCUBATION) was “inactive; negative”. The mutagenic call (Test System: AMES SALMONELLA TYPHIMURIUM, Strain/Indicator: TA102, Metabolic Activation: RAT, LIVER, S-9, PHENOBARBITAL AND 5,6-BENZOFLAVONE, Method: PREINCUBATION) was “inactive; negative”, the mutagenic call (Test System: AMES SALMONELLA TYPHIMURIUM, Strain/Indicator: TA104, Metabolic Activation: RAT, LIVER, S-9, AROCLOR 1254, Method: PREINCUBATION) was “inactive; negative” and the mutagenic call (Test System: AMES SALMONELLA TYPHIMURIUM, Strain/Indicator: TA104, Metabolic Activation: RAT, LIVER, S-9, PHENOBARBITAL AND 5,6-BENZOFLAVONE, Method: PREINCUBATION) was “inactive; negative”. The mutagenic call [6] was “inactive; negative”, the mutagenic call [7] was “inactive; negative” and the mutagenic call (Test System: AMES SALMONELLA TYPHIMURIUM, Strain/Indicator: TA2637, Metabolic Activation: NONE, Method: PREINCUBATION) was “inactive; negative”. For the same compound, the mutagenic call (Test System: AMES SALMONELLA TYPHIMURIUM, Strain/Indicator: TA2637, Metabolic Activation: RAT, LIVER, S-9, PHENOBARBITAL AND 5,6-BENZOFLAVONE, Method: PREINCUBATION) was “inactive; negative”, the mutagenic call (Test System: CHINESE HAMSTER V-79, Strain/Indicator: V-79/6-THIOGUANINE, Metabolic Activation: NONE) was “active; positive” and the mutagenic call (Test System: MOUSE LYMPHOMA, Strain/Indicator: L5178Y (TK+/TK-), Metabolic Activation: NONE, Method: SUSPENSION/PLATE) was “active; positive”.
`CN(C)CCNC(=O)c1cccc2c(=O)c3ccccc3oc12` was tested, and the mutagenic call [8] was “active; positive”.
For `O=C(O)c1ccc(N=Nc2ccc(O)c(C(=O)O)c2)cc1`, the mutagenic call [1] was “inactive; negative”, the mutagenic call (Test System: AMES SALMONELLA TYPHIMURIUM, Strain/Indicator: TA98, Metabolic Activation: RAT, LIVER, S-9, AROCLOR 1254, Method: STANDARD PLATE) was “inactive; negative” and the mutagenic call [4] was “inactive; negative”. The mutagenic call (Test System: AMES SALMONELLA TYPHIMURIUM, Strain/Indicator: TA100, Metabolic Activation: RAT, LIVER, S-9, AROCLOR 1254, Method: STANDARD PLATE) was “inactive; negative”, the mutagenic call (Test System: AMES SALMONELLA TYPHIMURIUM, Strain/Indicator: TA1535, Metabolic Activation: NONE, Method: STANDARD PLATE) was “inactive; negative” and the mutagenic call (Test System: AMES SALMONELLA TYPHIMURIUM, Strain/Indicator: TA1535, Metabolic Activation: RAT, LIVER, S-9, AROCLOR 1254, Method: STANDARD PLATE) was “inactive; negative”. The mutagenic call [8] was “inactive; negative”, the mutagenic call (Test System: AMES SALMONELLA TYPHIMURIUM, Strain/Indicator: TA1537, Metabolic Activation: RAT, LIVER, S-9, AROCLOR 1254, Method: STANDARD PLATE) was “inactive; negative” and the mutagenic call (Test System: AMES SALMONELLA TYPHIMURIUM, Strain/Indicator: TA1538, Metabolic Activation: NONE, Method: STANDARD PLATE) was “inactive; negative”. The mutagenic call (Test System: AMES SALMONELLA TYPHIMURIUM, Strain/Indicator: TA1538, Metabolic Activation: RAT, LIVER, S-9, AROCLOR 1254, Method: STANDARD PLATE) was “inactive; negative”, the mutagenic call (Test System: CHINESE HAMSTER V-79, Strain/Indicator: V-79 (HGPRT)/8-AZAGUANINE, Metabolic Activation: NONE) was “inactive; negative” and the mutagenic call (Test System: CHINESE HAMSTER V-79, Strain/Indicator: V-79 (HGPRT)/8-AZAGUANINE, Metabolic Activation: RAT, LIVER, S-9) was “inactive; negative”.
For `ClC1(Cl)C2(Cl)C3(Cl)C4(Cl)C(Cl)(Cl)C5(Cl)C3(Cl)C1(Cl)C5(Cl)C24Cl` (configuration not stated), the mutagenic call (Test System: AMES SALMONELLA TYPHIMURIUM, Strain/Indicator: TA98, Metabolic Activation: HAMSTER, LIVER, S-9, AROCLOR 1254, Method: PREINCUBATION) was “inactive; negative”, the mutagenic call (Test System: AMES SALMONELLA TYPHIMURIUM, Strain/Indicator: TA98, Metabolic Activation: NONE, Method: PREINCUBATION) was “inactive; negative” and the mutagenic call [2] was “inactive; negative”. For the same compound, the mutagenic call (Test System: AMES SALMONELLA TYPHIMURIUM, Strain/Indicator: TA100, Metabolic Activation: HAMSTER, LIVER, S-9, AROCLOR 1254, Method: PREINCUBATION) was “inactive; negative”, the mutagenic call [3] was “inactive; negative” and the mutagenic call [5] was “inactive; negative”. For the same compound, the mutagenic call (Test System: AMES SALMONELLA TYPHIMURIUM, Strain/Indicator: TA1535, Metabolic Activation: HAMSTER, LIVER, S-9, AROCLOR 1254, Method: PREINCUBATION) was “inactive; negative”, the mutagenic call [6] was “inactive; negative” and the mutagenic call [7] was “inactive; negative”. The mutagenic call (Test System: AMES SALMONELLA TYPHIMURIUM, Strain/Indicator: TA1537, Metabolic Activation: HAMSTER, LIVER, S-9, AROCLOR 1254, Method: PREINCUBATION) was “inactive; negative”, the mutagenic call (Test System: AMES SALMONELLA TYPHIMURIUM, Strain/Indicator: TA1537, Metabolic Activation: NONE, Method: PREINCUBATION) was “inactive; negative” and the mutagenic call (Test System: AMES SALMONELLA TYPHIMURIUM, Strain/Indicator: TA1537, Metabolic Activation: RAT, LIVER, S-9, AROCLOR 1254, Method: PREINCUBATION) was “inactive; negative”.
